Values quoted from earlier work as cited in patent publication US20250064896A1, “METHODS, COMPOSITIONS AND USES FOR TREATING CANCER BY PROVIDING MEDICATIONS THAT INDUCE TARGETED TUMOR CELL MITOSIS BEFORE PROVIDING CHEMOTHERAPY OR RADIATION AND KITS THEREFOR” (MAISON AMORI OQVPO LLC, priority 2022, published 2025).
Where two headings read alike, the source gives them in different places.

Key:
[1] = patients randomized to bicalutamide versus placebo
[2] = test system: metastatic hormone sensitive prostate cancer (MHSPC); conditions: for median actuarial freedom from Castrate Resistant Prostate Cancer (CRPC): p=0.04; for overall survival: p=0.2
[3] = test system: prostate cancer
[4] = test system: locally advanced prostate cancer; conditions: goserelin 3.6 mg every 4 weeks and flutamide 250 mg tid, 2 months before and concurrent with RT
[5] = test system: locally advanced prostate cancer
[6] = test system: prostate cancer (salvage setting); conditions: goserelin provided on the first day of radiation
[7] = test system: locally advanced prostate cancer; conditions: for overall survival at 5 years: P=0.73
[8] = test system: testosterone levels; conditions: week 2 from initiation of leuprolide; injections once every 3 months; advanced prostate cancer
[9] = test system: serum concentrations of LH and testosterone
[10] = in vivo
[11] = test system: testosterone levels
[12] = in vivo; remark: listed apart in the source
[13] = test system: metastatic adenocarcinoma of the prostate
[14] = arm I: irradiation plus goserelin started in the last week of radiation

For `CC(O)(CS(=O)(=O)c1ccc(F)cc1)C(=O)Nc1ccc(C#N)c(C(F)(F)F)c1` (centres unmarked) [bicalutamide], the “erectile dysfunction compared to placebo” value [1] is given as “non-statistically significant difference”.
For `CC(=O)O[C@@]12CO[C@@H]1C[C@H](O)[C@@]1(C)C(=O)[C@H](O)C3=C(C)[C@@H](OC(=O)[C@H](O)[C@@H](NC(=O)OC(C)(C)C)c4ccccc4)C[C@@](O)([C@@H](OC(=O)c4ccccc4)[C@H]21)C3(C)C` [docetaxel], the “overall survival versus LHRH therapy alone” value ([2]; docetaxel given at the beginning of LHRH therapy, MHSPC) is given as “significantly longer”, the “median actuarial freedom from Castrate Resistant Prostate Cancer (CRPC)” value ([2]; docetaxel started 1-6 days from LHRH initiation) is given as 51 months and the overall survival ([2]; docetaxel started 1-6 days from initiation of LHRH agonist) is given as 72 months. For the same compound, the “median actuarial freedom from Castrate Resistant Prostate Cancer (CRPC)” value ([2]; docetaxel started >14 days from LHRH initiation) was 18 months and the overall survival ([2]; docetaxel started >14 days from initiation of LHRH agonist) was 57 months.
In the case of `CC(C)C[C@H](NC(=O)[C@@H](COC(C)(C)C)NC(=O)[C@H](Cc1ccc(O)cc1)NC(=O)[C@H](CO)NC(=O)[C@H](Cc1c[nH]c2ccccc12)NC(=O)[C@H](Cc1cnc[nH]1)NC(=O)[C@@H]1CCC(=O)N1)C(=O)N[C@@H](CCCNC(=N)N)C(=O)N1CCC[C@H]1C(=O)NNC(N)=O` [goserelin], the “10-year absolute survival rate” value ([3]; arm 1 versus control arm 39%, p=0.002) is listed as 49%, the “5-year absolute survival rate” value [3, 14] is listed as 72% and the “9-year absolute survival rate” value [3, 14] is listed as 62%. The “survival, combined ADT with RT versus RT alone” value [4] was “no significant difference”, the 10-year overall survival ([5]; combined treatment, radiotherapy alone 39.8%, p=0.0004) was 58.1% and the “survival, hormonal therapy added to radiation compared to radiation alone” value ([5]; external irradiation plus goserelin) was “survival benefit”. The five-year overall survival ([5]; irradiation plus goserelin from first day for 3 years, antiandrogen for 1 month, radiotherapy alone 62%, p=0.0002) was 78%, the “survival, ADT in the salvage setting” value [6] was “survival benefit” and the “overall survival at 5 years” value ([7]; 24 months of goserelin after 4 months of goserelin and flutamide with RT) was 80.0%. The “overall survival between the two treatment arms” value ([7]; 24 months of goserelin versus no further treatment) was “not significantly different” and the “overall survival at 5 years” value ([7]; no further treatment after 4 months of goserelin and flutamide with RT) was 78.5%.
In the case of `CCNC(=O)[C@@H]1CCCN1C(=O)[C@H](CCCNC(=N)N)NC(=O)[C@H](CC(C)C)NC(=O)[C@@H](CC(C)C)NC(=O)[C@H](Cc1ccc(O)cc1)NC(=O)[C@H](CO)NC(=O)[C@H](Cc1c[nH]c2ccccc12)NC(=O)[C@H](Cc1c[nH]cn1)NC(=O)[C@@H]1CCC(=O)N1` [leuprolide], the “testosterone levels higher compared to baseline” value [8] is listed as “about 50%”, the “duration of elevation of testosterone levels” value ([9]; after LHRH analogue application) is listed as 7 days and the “duration of increase in relative LH values” ([9]; after LHRH analogue injection) is listed as 7 days. The maximum testosterone level ([9]; day 2 after LHRH analogue application) was 145±13%, the “maximum relative LH value” ([9]; day 2 after LHRH analogue injection, means±standard error, 16 patients with advanced prostatic cancer) was 345±108% and the “leuprolide blood levels, intranasal versus intravenous route” value [10] was “much lower”. For the same compound, the “median testosterone levels remained above castrate levels (0.5 ng/ml) until” value ([11]; after initiation of leuprolide) was 21 days, the “median testosterone levels increase from baseline” value ([11]; by day 3 after initiation of monthly leuprolide, P<0.001) was 65% and the median testosterone level ([11]; day 3 after initiation of leuprolide) was 6.30 ng/mL.
In the case of `C[C@]12CC[C@H]3[C@@H](CCC4=CC(=O)CC[C@@]43C)[C@@H]1CC[C@@H]2O` [testosterone], the half-life [12] is given as 170 h, the “patients with unfavorable subjective and/or objective responses” value ([13]; 52 patients treated with exogenous testosterone daily) is given as 87% and the “serious morbidity or mortality, seemingly due to the testosterone administration” value ([13]; eight cases of 52 patients) is given as 15%.
